# Activity calls are given as the source filed them. The rule behind the calls is not given here.
# Assays:
# SU-DHL-6 = experiment: Cytotoxicity against human SUDHL6 cells assessed as reduction in cell viability incubated for 4 days by celltiter glo luminescent assay; type: functional, cell-based; settings: SU-DHL-6, 96 h
# [1] = Fractional unbound in human plasma; type: ADME, cell-free
# Pfeiffer [2] = experiment: Cytotoxicity against human Pfeiffer cells assessed as reduction in protein binding adjusted cell viability incubated for 4 days by [3H]-thymidine incorporation based liquid scintillation counter method; type: functional
# Pfeiffer [3] = experiment: Cytotoxicity against human Pfeiffer cells assessed as reduction in cell viability incubated for 4 days by [3H]-thymidine incorporation based liquid scintillation counter method; type: functional
# [4] = target: T1, Phosphatidylinositol 4,5-bisphosphate 3-kinase catalytic subunit delta isoform (Homo sapiens, UniProt O00329)
# T1 sequence (O00329 whole entry): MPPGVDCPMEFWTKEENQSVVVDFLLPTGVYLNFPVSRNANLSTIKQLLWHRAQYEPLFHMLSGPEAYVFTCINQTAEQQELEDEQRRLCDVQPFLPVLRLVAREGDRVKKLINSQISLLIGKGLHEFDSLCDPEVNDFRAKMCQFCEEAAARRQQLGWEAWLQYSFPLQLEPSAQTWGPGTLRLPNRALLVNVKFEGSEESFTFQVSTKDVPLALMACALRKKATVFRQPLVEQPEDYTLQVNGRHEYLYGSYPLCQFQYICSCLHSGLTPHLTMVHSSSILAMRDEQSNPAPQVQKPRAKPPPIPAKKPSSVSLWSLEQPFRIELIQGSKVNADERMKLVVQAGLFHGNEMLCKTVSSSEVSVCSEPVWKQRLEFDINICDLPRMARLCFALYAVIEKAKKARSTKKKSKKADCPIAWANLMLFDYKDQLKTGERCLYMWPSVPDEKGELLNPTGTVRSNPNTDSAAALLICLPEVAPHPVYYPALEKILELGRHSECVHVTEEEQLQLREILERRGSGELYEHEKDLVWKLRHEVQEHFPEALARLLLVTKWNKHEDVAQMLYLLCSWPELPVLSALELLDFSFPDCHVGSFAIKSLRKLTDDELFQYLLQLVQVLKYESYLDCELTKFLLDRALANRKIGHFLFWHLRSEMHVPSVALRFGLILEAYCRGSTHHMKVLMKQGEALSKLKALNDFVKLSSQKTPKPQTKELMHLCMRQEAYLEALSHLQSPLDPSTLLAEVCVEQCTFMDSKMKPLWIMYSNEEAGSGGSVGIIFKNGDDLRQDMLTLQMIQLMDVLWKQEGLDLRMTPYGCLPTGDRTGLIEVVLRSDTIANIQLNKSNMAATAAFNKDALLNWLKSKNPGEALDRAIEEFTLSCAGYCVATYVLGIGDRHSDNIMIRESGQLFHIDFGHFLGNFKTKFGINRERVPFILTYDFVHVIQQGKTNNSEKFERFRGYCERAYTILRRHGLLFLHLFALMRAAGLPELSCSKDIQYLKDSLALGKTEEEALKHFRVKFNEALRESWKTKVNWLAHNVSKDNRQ
# Description: (§1) Inhibition of PI3Kdelta (unknown origin) using D-myophosphatidylinositol 4,5-bisphosphate as substrate incubated for 120 mins by [gamma-33P]ATP based SPA assay
# [5] = AUC in rat at 5 mg/kg, po measured for 24 hrs by LC/MS/MS analysis; type: ADME, organism-based; settings: in vivo
# [6] = AUC in cynomolgus monkey at 10 mg/kg, po measured for 24 hrs by LC/MS/MS analysis; type: ADME, organism-based, Macaca fascicularis; settings: in vivo
# [7] = Half life in cynomolgus monkey at 10 mg/kg, po measured for 24 hrs by LC/MS/MS analysis; type: ADME, organism-based, Macaca fascicularis; settings: in vivo
# [8] = target: Voltage-gated inwardly rectifying potassium channel KCNH2 (Homo sapiens, UniProt Q12809); experiment: Inhibition of human ERG channel at 30 uM incubated for 24 hrs in presence of [3H] Dofetilide by filter binding assay based scintillation counting analysis
# Voltage-gated inwardly rectifying potassium channel KCNH2, sequence (Q12809 whole entry): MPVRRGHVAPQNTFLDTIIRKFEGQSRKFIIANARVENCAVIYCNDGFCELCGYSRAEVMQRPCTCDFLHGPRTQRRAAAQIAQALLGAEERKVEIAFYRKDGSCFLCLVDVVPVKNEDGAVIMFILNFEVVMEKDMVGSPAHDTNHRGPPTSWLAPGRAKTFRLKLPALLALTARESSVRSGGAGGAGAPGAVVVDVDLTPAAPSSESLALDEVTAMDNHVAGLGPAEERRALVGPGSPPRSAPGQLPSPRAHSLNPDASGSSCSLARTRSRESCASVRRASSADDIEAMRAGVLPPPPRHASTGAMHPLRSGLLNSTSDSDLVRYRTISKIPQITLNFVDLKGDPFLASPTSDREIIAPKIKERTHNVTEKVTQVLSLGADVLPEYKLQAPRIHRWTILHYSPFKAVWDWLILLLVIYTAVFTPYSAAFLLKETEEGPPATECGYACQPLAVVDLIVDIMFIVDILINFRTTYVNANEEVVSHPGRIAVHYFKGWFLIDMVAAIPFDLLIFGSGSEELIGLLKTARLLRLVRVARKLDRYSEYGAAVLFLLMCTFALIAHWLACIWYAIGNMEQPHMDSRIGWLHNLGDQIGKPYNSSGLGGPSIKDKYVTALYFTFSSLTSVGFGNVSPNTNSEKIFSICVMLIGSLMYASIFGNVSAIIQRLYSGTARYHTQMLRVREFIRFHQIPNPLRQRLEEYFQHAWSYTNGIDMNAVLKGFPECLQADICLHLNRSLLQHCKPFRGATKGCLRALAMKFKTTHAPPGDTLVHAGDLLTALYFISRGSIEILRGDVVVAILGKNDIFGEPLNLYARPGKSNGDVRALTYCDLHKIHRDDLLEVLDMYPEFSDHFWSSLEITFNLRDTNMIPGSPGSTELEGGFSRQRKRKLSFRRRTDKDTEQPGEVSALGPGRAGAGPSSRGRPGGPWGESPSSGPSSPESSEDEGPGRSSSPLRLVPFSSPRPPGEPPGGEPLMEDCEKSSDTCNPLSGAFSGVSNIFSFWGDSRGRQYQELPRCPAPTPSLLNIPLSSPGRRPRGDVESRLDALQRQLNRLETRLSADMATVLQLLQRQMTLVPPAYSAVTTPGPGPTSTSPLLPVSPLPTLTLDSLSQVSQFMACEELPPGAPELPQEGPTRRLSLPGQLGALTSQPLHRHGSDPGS
# [9] = Half life in cynomolgus monkey at 2 mg/kg, po measured for 24 hrs by LC/MS/MS analysis; type: ADME, organism-based, Macaca fascicularis; settings: in vivo
# HEK293 = experiment: Cytotoxicity against human HEK293 cells assessed as reduction in cell viability at 20 uM incubated for 72 hrs by celltiter glo luminescent assay; type: cell-based; settings: hek293, 72 h
# [10] = AUC in rat at 4 mg/kg, po measured for 24 hrs by LC/MS/MS analysis; type: ADME, organism-based; settings: in vivo
# [11] = AUC in cynomolgus monkey at 2 mg/kg, po measured for 24 hrs by LC/MS/MS analysis; type: ADME, organism-based, Macaca fascicularis; settings: in vivo
# [12] = Permeability across apical to basolateral side in human Caco2 cells at 50 uM incubated for 120 mins by LC/MS analysis; type: ADME, cell-based; settings: Caco-2, read-out: permeability
# [13] = target: T2, Phosphatidylinositol 4,5-bisphosphate 3-kinase catalytic subunit delta isoform (Homo sapiens) (UniProt O00329)
# T2 sequence (whole entry): T1 sequence (O00329 whole entry)
# Description: as §1
# [14] = Intrinsic clearance in human liver microsomes at 1 uM measured upto 30 mins by LC/MS analysis; type: ADME, Microsome; settings: read-out: CLH (converted)
# [15] = Toxicity in dog assessed as testicular lesions observed on day 28; set-up: species or system Canis lupus familiaris; settings: in vivo
# [16] = AUC in cynomolgus monkey at 1 mg/kg, po measured for 24 hrs by LC/MS/MS analysis; type: ADME, organism-based, Macaca fascicularis; settings: in vivo
# [17] = Toxicity in Beagle dog; set-up: species or system Canis lupus familiaris; settings: in vivo
Compound,fraction unbound [1],IC50 [4],IC50 (SU-DHL-6),IC50 (Pfeiffer [2]),IC50 (Pfeiffer [3]),also measured
COc1c([C@H](C)Nc2ncnc3[nH]cnc23)cc(Cl)c(C)c1-c1ccc(S(C)(=O)=O)cc1,0.013,–,170 nM,3100 nM,130 nM,–
COc1c(C(C)n2nc(C)c3c(N)ncnc32)cc(Cl)c(C)c1C1CCN(C)CC1 (racemic),0.19,11 nM,44 nM,53 nM,11 nM,–
Cc1c(Cl)cc(C(C)Nc2ncnc3[nH]cnc23)c(-c2cccc(F)c2)c1-c1cnn(C)c1 (racemic),–,5.3 nM,60 nM,–,8.7 nM,–
Cc1csc2nc([C@H](C)Nc3ncnc4[nH]cnc34)c(-c3cccc(F)c3)c(=O)n12 [DEZAPELISIB],0.17,–,18 nM,66 nM,14 nM,AUC at 24 h [5]: 4.4 µM·h; AUC at 24 h [6]: 4.9 µM·h; half-life [7]: 78 min
CC(Nc1ncnc2[nH]cnc12)c1ccc2cccnc2c1-c1cccc(F)c1 (racemic),0.1,430 nM,1800 nM,3200 nM,490 nM,–
COc1c(C(C)n2ncc3c(N)ncnc32)cc(Cl)c(C)c1-c1ccnc(C(=O)N(C)C)c1 (racemic),0.092,120 nM,840 nM,4500 nM,610 nM,–
Cc1c(Cl)cc(C(C)Nc2ncnc3[nH]cnc23)c(-c2cccc(F)c2)c1C#N (racemic),0.0064,–,1300 nM,–,660 nM,–
C[C@H](Nc1ncnc2[nH]cnc12)c1cc(Cl)c2ccnnc2c1-c1cccc(F)c1,0.059,–,73 nM,270 nM,26 nM,AUC at 24 h [5]: 13 µM·h; Activity [17]: Toxic
C[C@H](Nc1ncnc2[nH]cnc12)c1cc(Cl)c2cccnc2c1-c1cccc(F)c1,0.014,8.4 nM,140 nM,1000 nM,50 nM,–

# Continued, in another order:
fraction unbound [1],IC50 [4],Compound,IC50 (SU-DHL-6),IC50 (Pfeiffer [2]),IC50 (Pfeiffer [3]),also measured
0.089,0.93 nM,COc1c([C@H](C)n2nc(C)c3c(N)ncnc32)cc(Cl)c(C)c1-c1ccnc(C(=O)N(C)C)c1,7.4 nM,61 nM,8.6 nM,–
0.029,2.8 nM,COc1c([C@H](C)Nc2ncnc3[nH]cnc23)cc(Cl)c(C)c1-c1cnn(C)c1,100 nM,950 nM,120 nM,–
0.22,1.8 nM,COc1c([C@H](C)Nc2ncnc(N)c2C#N)cc(Cl)c(C)c1-c1ccc(C(=O)N(C)C)cn1,21 nM,61 nM,17 nM,inhibition (INH) [8]: Not Active; half-life [9]: 12 min; Activity (HEK293): Non-Toxic; AUC at 24 h [10]: 7.7 µM·h; AUC at 24 h [11]: 0.2 µM·h
0.14,0.99 nM,COc1c([C@H](C)Nc2ncnc(N)c2C#N)cc(Cl)c(C)c1-c1cncc(S(C)(=O)=O)c1,3.1 nM,17 nM,3.4 nM,"inhibition (INH) [8]: Active; Activity (HEK293): Toxic; Papp A→B at 2 h, 50 µM [12]: 7.9 ×10⁻⁶ cm/s; AUC at 24 h [10]: 10 µM·h"
0.065,1.4 nM,CCOc1c([C@H](C)n2nc(C)c3c(N)ncnc32)cc(Cl)c(C)c1C1CNC(=O)C1 (stereo partly drawn),2.1 nM,47 nM,4.8 nM,"Papp A→B at 2 h, 50 µM [12]: 1.9 ×10⁻⁶ cm/s; inhibition [13]: inactive; CLint scaled at 1 µM [14]: 11.7 mL/min/kg"
0.12,1.7 nM,COc1c([C@H](C)Nc2ncnc3[nH]cnc23)cc(Cl)c(C)c1-c1cncc(S(C)(=O)=O)c1,14 nM,40 nM,9.5 nM,"Papp A→B at 2 h, 50 µM [12]: 0.5 ×10⁻⁶ cm/s; AUC at 24 h [5]: 3 µM·h"
0.42,1.9 nM,COc1c([C@H](C)n2nc(C)c3c(N)ncnc32)cc(Cl)c(C#N)c1C1CN(C[C@H](C)O)C1,2.4 nM,3.6 nM,1.5 nM,inhibition (INH) [8]: Active; Activity [15]: Toxic; AUC at 24 h [5]: 6.8 µM·h; AUC at 24 h [16]: 4.1 µM·h
0.23,< 1 nM,CCOc1c([C@H](C)n2nc(C)c3c(N)ncnc32)cc(Cl)c(C#N)c1C1CNC(=O)C1 (stereo partly drawn),0.47 nM,4.1 nM,1.7 nM,"Papp A→B at 2 h, 50 µM [12]: 0.3 ×10⁻⁶ cm/s; inhibition [13]: inactive; CLint scaled at 1 µM [14]: 11.7 mL/min/kg"
0.1,2.4 nM,COc1c([C@H](C)n2nc(C)c3c(N)ncnc32)cc(Cl)c(C)c1C1CNC(=O)C1 (stereo partly drawn),13 nM,480 nM,51 nM,"inhibition (INH) [8]: Not Active; Papp A→B at 2 h, 50 µM [12]: 2.8 ×10⁻⁶ cm/s; inhibition [13]: inactive; CLint scaled at 1 µM [14]: 11.7 mL/min/kg"
